Reference: ChEMBL document CHEMBL3593229, “Identification of a potent 5-phenyl-thiazol-2-ylamine-based inhibitor of FLT3 with activity against drug resistance-conferring point mutations” (Eur J Med Chem, 2015)

Tests used:
Aurora kinase A = biological target: T1, Aurora kinase A (Homo sapiens, UniProt O14965); assay: biochemical
T1 sequence (O14965 whole entry): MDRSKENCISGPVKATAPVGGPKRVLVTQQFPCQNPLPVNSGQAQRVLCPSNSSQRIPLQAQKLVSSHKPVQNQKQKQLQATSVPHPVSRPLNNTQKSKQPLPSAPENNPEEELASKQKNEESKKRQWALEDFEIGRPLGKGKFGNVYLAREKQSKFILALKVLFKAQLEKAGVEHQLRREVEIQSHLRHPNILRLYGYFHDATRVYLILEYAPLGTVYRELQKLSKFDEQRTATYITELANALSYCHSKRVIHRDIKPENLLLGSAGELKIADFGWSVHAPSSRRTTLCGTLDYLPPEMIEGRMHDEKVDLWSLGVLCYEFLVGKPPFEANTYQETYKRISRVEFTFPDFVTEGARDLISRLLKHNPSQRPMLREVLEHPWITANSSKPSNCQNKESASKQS
Description: Inhibition of recombinant GST-tagged Aurora-A kinase domain (S123 to S401) (unknown origin) expressed in insect Sf9 cells using tetra(LRRASLG) peptide as substrate after 90 mins by Kinase-Glo assay

[1] = test system: Receptor-type tyrosine-protein kinase FLT3 (Homo sapiens), P36888 [UNDEFINED MUTATION]; conditions: MOLM-13
Description: Inhibition of FLT3 ITD heterozygous mutant in human MOLM-13 cells assessed as cell growth inhibition after 72 hrs by MTS assay

[2] = biological target: Vascular endothelial growth factor receptor 2 (Homo sapiens, UniProt P35968); assay: biochemical; type: cell-based, Sf9
Sequence of Vascular endothelial growth factor receptor 2 (P35968 whole entry): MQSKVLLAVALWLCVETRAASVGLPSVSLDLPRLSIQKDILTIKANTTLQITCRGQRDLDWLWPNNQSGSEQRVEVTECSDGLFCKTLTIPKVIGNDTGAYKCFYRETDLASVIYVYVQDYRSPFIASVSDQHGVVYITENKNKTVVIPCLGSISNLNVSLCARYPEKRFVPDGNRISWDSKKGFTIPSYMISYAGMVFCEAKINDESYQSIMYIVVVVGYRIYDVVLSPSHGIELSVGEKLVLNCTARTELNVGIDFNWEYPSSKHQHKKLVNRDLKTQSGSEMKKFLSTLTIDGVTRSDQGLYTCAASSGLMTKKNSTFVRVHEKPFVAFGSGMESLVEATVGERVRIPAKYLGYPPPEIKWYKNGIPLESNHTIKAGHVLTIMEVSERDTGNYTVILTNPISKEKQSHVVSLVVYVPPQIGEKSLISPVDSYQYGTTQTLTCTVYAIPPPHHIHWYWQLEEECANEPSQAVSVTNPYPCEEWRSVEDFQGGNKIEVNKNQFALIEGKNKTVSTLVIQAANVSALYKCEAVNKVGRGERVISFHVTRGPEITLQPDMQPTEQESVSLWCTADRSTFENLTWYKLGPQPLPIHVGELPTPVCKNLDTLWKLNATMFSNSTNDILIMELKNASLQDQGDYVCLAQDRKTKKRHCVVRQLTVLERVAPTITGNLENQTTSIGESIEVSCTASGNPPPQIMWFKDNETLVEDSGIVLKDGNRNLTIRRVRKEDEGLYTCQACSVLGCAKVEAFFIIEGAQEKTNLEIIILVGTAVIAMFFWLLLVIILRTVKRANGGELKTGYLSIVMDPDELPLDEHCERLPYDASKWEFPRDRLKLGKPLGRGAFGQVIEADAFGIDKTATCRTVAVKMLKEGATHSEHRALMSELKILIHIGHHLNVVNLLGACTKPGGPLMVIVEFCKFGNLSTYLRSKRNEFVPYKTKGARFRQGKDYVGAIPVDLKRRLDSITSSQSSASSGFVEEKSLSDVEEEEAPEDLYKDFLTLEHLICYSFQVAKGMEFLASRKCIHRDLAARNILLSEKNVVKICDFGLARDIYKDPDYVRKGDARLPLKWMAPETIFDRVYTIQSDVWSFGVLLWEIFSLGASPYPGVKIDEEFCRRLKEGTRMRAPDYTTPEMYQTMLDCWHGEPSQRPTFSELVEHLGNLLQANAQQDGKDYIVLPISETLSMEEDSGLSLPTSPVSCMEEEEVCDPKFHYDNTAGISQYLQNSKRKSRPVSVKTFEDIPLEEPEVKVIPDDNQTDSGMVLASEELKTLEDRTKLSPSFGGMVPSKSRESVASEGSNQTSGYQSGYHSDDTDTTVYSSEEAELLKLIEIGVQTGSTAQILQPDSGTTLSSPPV
Description: Inhibition of recombinant GST-tagged VEGFR2 kinase domain (V789 to V1356) (unknown origin) expressed in insect Sf9 cells using polyGlu4:Tyr peptide as substrate after 120 mins by Kinase-Glo assay

[3] = biological target: T2, Receptor-type tyrosine-protein kinase FLT3 (Homo sapiens, UniProt P36888); assay: biochemical; type: cell-based, Sf9
T2 sequence (P36888 whole entry): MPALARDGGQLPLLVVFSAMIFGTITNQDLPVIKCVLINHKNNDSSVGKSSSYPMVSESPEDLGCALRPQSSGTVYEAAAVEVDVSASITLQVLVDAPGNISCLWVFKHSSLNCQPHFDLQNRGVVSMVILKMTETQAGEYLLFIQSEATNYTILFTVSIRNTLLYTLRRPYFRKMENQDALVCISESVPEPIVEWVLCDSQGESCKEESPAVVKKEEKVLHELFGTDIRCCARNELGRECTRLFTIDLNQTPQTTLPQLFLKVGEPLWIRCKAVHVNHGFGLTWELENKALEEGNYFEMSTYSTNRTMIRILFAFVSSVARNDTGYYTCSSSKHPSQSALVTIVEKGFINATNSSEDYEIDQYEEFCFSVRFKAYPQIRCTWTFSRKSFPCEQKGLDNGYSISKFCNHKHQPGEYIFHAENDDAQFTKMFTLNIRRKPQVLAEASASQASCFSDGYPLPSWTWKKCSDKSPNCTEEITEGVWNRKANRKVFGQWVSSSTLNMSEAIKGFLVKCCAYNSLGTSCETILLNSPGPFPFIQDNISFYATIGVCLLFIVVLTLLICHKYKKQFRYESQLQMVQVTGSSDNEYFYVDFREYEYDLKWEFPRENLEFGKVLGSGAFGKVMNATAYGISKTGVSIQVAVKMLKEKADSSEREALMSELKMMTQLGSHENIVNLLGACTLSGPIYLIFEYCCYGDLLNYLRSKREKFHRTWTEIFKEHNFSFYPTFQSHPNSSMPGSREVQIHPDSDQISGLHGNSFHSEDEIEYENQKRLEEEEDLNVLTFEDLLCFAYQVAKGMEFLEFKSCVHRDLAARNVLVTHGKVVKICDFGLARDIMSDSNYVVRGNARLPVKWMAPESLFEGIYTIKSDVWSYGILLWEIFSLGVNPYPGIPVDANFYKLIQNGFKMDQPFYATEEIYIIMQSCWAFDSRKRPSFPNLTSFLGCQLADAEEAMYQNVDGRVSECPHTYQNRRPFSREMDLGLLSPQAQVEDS
Description: Inhibition of wild type GST-tagged FLT3 kinase domain (Y567 to S993) (unknown origin) expressed in baculovirus infected insect Sf9 cells using Her2 peptide as substrate after 4 hrs by Kinase-Glo assay

[4] = AUC (0 to infinity) in Sprague-Dawley rat at 10 mg/kg, po; type: ADME, organism-based; design: dose 10 mg/kg, time infinity, route oral; conditions: in vivo
[5] = Oral bioavailability in Sprague-Dawley rat at 10 mg/kg; type: ADME, organism-based; conditions: in vivo

| SMILES | IC50 (Aurora kinase A) | GI50 [1] | IC50 [2] | IC50 [3] | AUC(0-inf) [4] | bioavailability [5] |
| --- | --- | --- | --- | --- | --- | --- |
| Cc1nc(Nc2ncc(-c3ccc(NC(=O)Nc4ccccc4)cc3)s2)cc(N2CCN(C)CC2)n1 | > 10 µM | 0.024 µM | 0.16 µM | 0.079 µM |  |  |
| CCCCc1cc(NC(=O)Nc2ccc(-c3cnc(Nc4cc(N5CCN(C)CC5)nc(C)n4)s3)cc2)no1 | 0.038 µM | 0.014 µM | 0.055 µM | 0.022 µM |  |  |
| CCN1CCN(c2cc(Nc3ncc(-c4ccc(NS(=O)(=O)c5ccccc5)cc4)s3)nc(C)n2)CC1 | 0.043 µM | 0.14 µM | 0.17 µM | 0.52 µM |  |  |
| CCN1CCN(c2cc(Nc3ncc(-c4ccc(NC(=O)Nc5cc(C6CC6)on5)cc4)s3)nc(C)n2)CC1 | 0.036 µM | 0.002 µM | 0.015 µM | 0.033 µM |  |  |
| Cc1nc(Nc2ncc(-c3ccc(NC(=O)Nc4cccc(Cl)c4)cc3)s2)cc(N2CCNCC2)n1 | 0.27 µM | 0.024 µM | 0.031 µM | 0.02 µM |  |  |
| Cc1cc(NC(=O)Nc2ccc(-c3cnc(NC(=O)c4ccc(OCCN5CCOCC5)cc4)s3)cc2)no1 | 0.025 µM | 0.21 µM | 0.37 µM | 0.58 µM |  |  |
| Cc1nc(Nc2ncc(-c3ccc(NC(=O)Nc4cc(C)on4)cc3)s2)cc(N2CCN(C)CC2)n1 | 0.056 µM | 0.001 µM | 0.015 µM | 0.01 µM | 0.313 µg·h/mL | 10% |
| CCc1cc(NC(=O)Nc2ccc(-c3cnc(Nc4cc(N5CCN(C)CC5)nc(C)n4)s3)cc2)no1 | 0.041 µM | 0.003 µM | 0.01 µM | 0.049 µM | 0.632 µg·h/mL | 18% |
| Cc1nc(Nc2ncc(-c3ccc(NC(=O)Nc4ccccc4)cc3)s2)cc(N2CCC(N)CC2)n1 | 0.15 µM | 0.016 µM | 0.053 µM | 0.073 µM |  |  |
| CCc1cc(NC(=O)Nc2ccc(-c3cnc(Nc4cc(N5CCC(N)C5)nc(C)n4)s3)cc2)no1 (centres undefined) |  | 0.003 µM |  |  |  |  |
| CCN1CCN(c2cc(Nc3ncc(-c4ccc(NC(=O)Nc5ccc(Cl)cc5)cc4)s3)nc(C)n2)CC1 | 0.095 µM | 0.009 µM | 0.043 µM | 0.32 µM |  |  |
| CCN1CCN(c2cc(Nc3ncc(-c4ccc(NC(=O)c5ccccc5)cc4)s3)nc(C)n2)CC1 | 0.14 µM | 0.019 µM | > 1 µM | 0.85 µM |  |  |
| CCN1CCN(c2cc(Nc3ncc(-c4ccc(NC(=O)OCc5ccccc5)cc4)s3)nc(C)n2)CC1 | 0.32 µM | 0.003 µM | 0.12 µM | 0.083 µM | 0.066 µg·h/mL |  |
